Where “and” joins values, the source holds several entries; their conditions need not be identical. Identical values can stand only once. Like-named read-outs stand apart in the source and are kept apart here. One block for each compound: values may come before it.
Assays:
holo-RBP-TTR interaction = holo-RBP-TTR interaction (Homo sapiens, UniProt P02766); assay: Effect on holo-RBP-TTR interaction in human serum (cross-linking, Western blot); settings: human serum, quantified from gel image, replicates (Supp Fig.14b)
purified human TTR = purified human TTR (Homo sapiens, UniProt P02766); assay: Fluorescence polarization (FP) binding assay, ligands to TTR in buffer
TTR in human serum = TTR in human serum (Homo sapiens, UniProt P02766); assay: TTR serum fluorescent probe exclusion (FPE) selectivity assay; type: binding; settings: ligand 10 µM; for %FPE probe fluorescence: human serum, replicates
[1] = biological target: human mu-opioid receptors (Homo sapiens, UniProt P35372); assay: biochemical; type: binding; settings: binding affinity to mu-opioid receptor (Ki)
[2] = biological target: T1, delta-opioid receptor (human) (Homo sapiens, UniProt P41143); assay: Human delta-opioid receptor (agonist radioligand [3H]-DADLE) binding assay; settings: for % Inhibition of Control Specific Binding: delta-opioid receptor binding, replicates 1st/2nd
T1 construct: Eurofins Cerep (France)

[3] = biological target: T2, kappa opioid receptor (rat) (Rattus norvegicus, UniProt P34975); assay: Rat kappa-opioid receptor (agonist radioligand [3H] U 69593) binding assay; settings: for % Inhibition of Control Specific Binding: kappa-opioid receptor binding, replicates 1st/2nd
T2 construct: Eurofins Cerep (France)

male Sprague-Dawley rats [4] = assay: Gastrointestinal (GI) transit (charcoal meal) assays; type: in vivo, rat; settings: rat, in vivo
[5] = for Concentration: subcutaneous 15.9 μmole/kg, individual animals
male Sprague-Dawley rats [6] = settings: rat, in vivo
in vivo [7] = settings: male, Sprague Dawley, rat, sc
in vivo [8] = settings: male, Sprague Dawley, rat, sc; remark: listed apart in the source

T2 sequence (P34975 whole entry): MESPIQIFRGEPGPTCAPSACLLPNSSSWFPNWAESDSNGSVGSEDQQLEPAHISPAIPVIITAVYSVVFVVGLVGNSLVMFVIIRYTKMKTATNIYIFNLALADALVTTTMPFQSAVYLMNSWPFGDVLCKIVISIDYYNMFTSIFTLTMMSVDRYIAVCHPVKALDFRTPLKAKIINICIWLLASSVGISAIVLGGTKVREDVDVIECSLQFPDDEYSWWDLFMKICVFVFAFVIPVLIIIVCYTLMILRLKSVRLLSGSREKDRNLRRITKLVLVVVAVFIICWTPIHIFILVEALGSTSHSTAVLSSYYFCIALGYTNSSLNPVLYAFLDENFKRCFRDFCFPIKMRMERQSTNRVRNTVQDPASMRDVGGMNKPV
T1 sequence (P41143 whole entry): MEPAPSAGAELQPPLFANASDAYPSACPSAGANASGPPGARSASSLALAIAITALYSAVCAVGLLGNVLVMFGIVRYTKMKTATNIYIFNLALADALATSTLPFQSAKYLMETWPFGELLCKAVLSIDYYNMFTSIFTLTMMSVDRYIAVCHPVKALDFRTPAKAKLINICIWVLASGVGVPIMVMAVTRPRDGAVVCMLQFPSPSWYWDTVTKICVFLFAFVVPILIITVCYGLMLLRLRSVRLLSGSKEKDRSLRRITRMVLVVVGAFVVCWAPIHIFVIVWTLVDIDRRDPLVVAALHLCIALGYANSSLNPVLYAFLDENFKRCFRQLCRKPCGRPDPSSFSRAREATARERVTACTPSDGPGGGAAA
Sequence of human mu-opioid receptors (P35372 whole entry): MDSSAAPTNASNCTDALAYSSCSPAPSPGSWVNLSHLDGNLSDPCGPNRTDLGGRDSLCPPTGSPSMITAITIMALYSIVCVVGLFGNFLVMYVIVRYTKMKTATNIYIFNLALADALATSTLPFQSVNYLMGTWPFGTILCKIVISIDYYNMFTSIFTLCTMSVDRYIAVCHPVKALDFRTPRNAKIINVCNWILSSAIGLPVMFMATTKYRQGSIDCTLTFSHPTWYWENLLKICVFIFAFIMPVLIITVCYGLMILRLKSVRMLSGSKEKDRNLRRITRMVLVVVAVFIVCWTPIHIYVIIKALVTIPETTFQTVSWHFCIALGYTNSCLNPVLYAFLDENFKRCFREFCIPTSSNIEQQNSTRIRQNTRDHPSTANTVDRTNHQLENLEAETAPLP

%holo RBP binding to TTR (holo-RBP-TTR interaction): 7.1% and 6.9% and 6%
SMILES: NC(Cc1cc(I)c(Oc2cc(I)c(O)c(I)c2)c(I)c1)C(=O)O (centres unmarked) [Thyroxine]

SMILES: COc1ccc2c3c1O[C@H]1[C@@H](OCc4cn(CCNCCCCCCOc5cc(OCCCc6c(C)n[nH]c6C)cc(C(=O)O)c5)nn4)CC[C@@]4(O)[C@@H](C2)N(C)CC[C@]314 [AG10-L2-Oxy]
% Fluorescence polarization (mean) (purified human TTR; log [nM] inhibitor 0.990): 100.000%
% Fluorescence polarization (mean) (purified human TTR; log [nM] inhibitor 1.291): 102.820%
% Fluorescence polarization (mean) (purified human TTR; log [nM] inhibitor 1.592): 102.360%
% Fluorescence polarization (mean) (purified human TTR; log [nM] inhibitor 1.893): 99.420%
% Fluorescence polarization (mean) (purified human TTR; log [nM] inhibitor 2.194): 100.060%
% Fluorescence polarization (mean) (purified human TTR; log [nM] inhibitor 2.495): 94.250%
% Fluorescence polarization (mean) (purified human TTR; log [nM] inhibitor 2.796): 77.990%
% Fluorescence polarization (mean) (purified human TTR; log [nM] inhibitor 3.097): 63.730%
% Fluorescence polarization (mean) (purified human TTR; log [nM] inhibitor 3.398): 48.160%
% Fluorescence polarization (mean) (purified human TTR; log [nM] inhibitor 3.699): 35.010%
% Fluorescence polarization (mean) (purified human TTR; log [nM] inhibitor 4.000): 21.890%
% Fluorescence polarization (mean) (purified human TTR; log [nM] inhibitor […]): 0.000%
% TTR occupancy in human serum (TTR in human serum; FPE probe 3.6 µM, 3 h reading relative to probe alone, text mean ± s.d., table replicates): 66.15% and 66.78% and 69.04% and 66.00%
%FPE probe fluorescence (TTR in human serum; time 0.000 h): 0.000%
%FPE probe fluorescence (TTR in human serum; time 0.083 h): 0.549% and 0.762% and -1.844% and -1.645%
%FPE probe fluorescence (TTR in human serum; time 0.250 h): 0.706% and 1.255% and -0.116% and -0.642%
%FPE probe fluorescence (TTR in human serum; time 0.500 h): 2.826% and 3.272% and 3.466% and 3.115%
%FPE probe fluorescence (TTR in human serum; time 1.000 h): 4.537% and 7.078% and 8.406% and 7.892%
%FPE probe fluorescence (TTR in human serum; time 1.250 h): 9.016% and 10.868% and 10.718% and 11.974%
%FPE probe fluorescence (TTR in human serum; time 1.500 h): 11.997% and 15.126% and 11.024% and 13.206%
%FPE probe fluorescence (TTR in human serum; time 1.750 h): 15.076% and 17.659% and 14.693% and 18.815%
%FPE probe fluorescence (TTR in human serum; time 2.000 h): 19.358% and 21.045% and 18.427% and 21.877%
%FPE probe fluorescence (TTR in human serum; time 2.250 h): 25.163% and 23.487% and 22.045% and 24.539%
%FPE probe fluorescence (TTR in human serum; time 2.500 h): 25.806% and 27.529% and 26.249% and 27.302%
%FPE probe fluorescence (TTR in human serum; time 2.750 h): 30.929% and 30.377% and 27.371% and 30.854%
%FPE probe fluorescence (TTR in human serum; time 3.000 h): 33.853% and 33.219% and 30.957% and 33.996%
%FPE probe fluorescence (TTR in human serum; time 3.500 h): 39.372% and 39.356% and 37.472% and 40.606%
%FPE probe fluorescence (TTR in human serum; time 3.750 h): 41.871% and 41.320% and 39.536% and 41.800%
%FPE probe fluorescence (TTR in human serum; time 4.000 h): 43.406% and 44.388% and 42.775% and 45.047%
%FPE probe fluorescence (TTR in human serum; time 4.250 h): 46.096% and 46.093% and 44.165% and 46.692%
%FPE probe fluorescence (TTR in human serum; time 4.500 h): 48.403% and 48.011% and 46.251% and 48.352%
%FPE probe fluorescence (TTR in human serum; time 4.750 h): 49.977% and 52.633% and 49.006% and 51.062%
%FPE probe fluorescence (TTR in human serum; time 5.000 h): 52.730% and 52.156% and 49.883% and 52.401%
%FPE probe fluorescence (TTR in human serum; time 5.250 h): 54.499% and 55.931% and 51.647% and 54.573%
%FPE probe fluorescence (TTR in human serum; time 5.500 h): 56.002% and 55.963% and 54.625% and 55.846%
%FPE probe fluorescence (TTR in human serum; time 5.750 h): 57.400% and 57.044% and 54.205% and 59.081%
%FPE probe fluorescence (TTR in human serum; time 6.000 h): 57.353% and 57.260% and 55.092% and 59.796%
Ki [1]: 13 nM
Ki ([2]; [3H]-DADLE displacement, read-out: binding affinity to delta-opioid receptor (Ki)): 410 nM
% Inhibition of Control Specific Binding ([2]; 1.0E-06 M): 50.5% and 49.9%
% Inhibition of Control Specific Binding ([2]; 1.0E-07 M): 14.8% and 19.2%
% Inhibition of Control Specific Binding ([2]; 1.0E-08 M): 1.2% and -2.9%
% Inhibition of Control Specific Binding ([2]; 1.0E-09 M): -6.1% and -3.7%
% Inhibition of Control Specific Binding ([2]; 2.0E-06 M): 65.5% and 63.4%
Ki ([3]; [3H] U 69593 displacement, read-out: binding affinity to kappa-opioid receptor (Ki)): 120 nM
% Inhibition of Control Specific Binding ([3]; 1.0E-06 M): 78.6% and 74.5%
% Inhibition of Control Specific Binding ([3]; 1.0E-07 M): 32.2% and 33.7%
% Inhibition of Control Specific Binding ([3]; 1.0E-08 M): 1.0% and 5.5%
% Inhibition of Control Specific Binding ([3]; 1.0E-09 M): -3.9% and 9.9%
% Inhibition of Control Specific Binding ([3]; 2.0E-06 M): 85.0% and 84.1%
GI transit (% of vehicle) (male Sprague-Dawley rats [4]): 9.5 ± 2.8%
GI transit as % of vehicle group (male Sprague-Dawley rats [4]): 9.19% and 12.07% and 6.37% and 7.14% and 12.52%
GI transit (% of vehicle) (male Sprague-Dawley rats [4]; sc): 89.5 ± 3.0%
GI transit as % of vehicle group (male Sprague-Dawley rats [4]; sc): 86.23% and 92.53% and 87.21% and 92.83% and 88.77%
k ([5]; rat, single SC dose 16 µmol/kg): 0.15 ± 0.02 h⁻¹
Concentration ([5]; time 0.03 h): 1980.92 nM and 1419.06 nM and 1694.61 nM
Concentration ([5]; time 0.5 h): 6994.54 nM and 3873.66 nM and 4264.25 nM
Concentration ([5]; time 0.75 h): 6976.39 nM and 5017.1 nM and 7890.95 nM
Concentration ([5]; time 1 h): 6606.43 nM and 5966.57 nM and 8438.91 nM
Concentration ([5]; time 2 h): 5069.67 nM and 5721.19 nM and 8480.16 nM
Concentration ([5]; time 4 h): 2353.83 nM and 3068.56 nM and 2535.48 nM
Concentration ([5]; time 6 h): 732.498 nM and 360.453 nM and 640.073 nM and 668.521 nM
Concentration ([5]; time 8 h): 132.069 nM and 207.97 nM and 223.861 nM
Concentration ([5]; time 12 h): 78.9419 nM and 35.0657 nM and 62.9969 nM and 75.6407 nM
Concentration ([5]; time 24 h): 12.92 nM and 13.41 nM and 14.17 nM
hot plate latency (male Sprague-Dawley rats [6]): 54.2 ± 4.8 s
hot plate latency (male Sprague-Dawley rats [6]; sc): 9.5 ± 0.8 s
Kp (in vivo [7]; percentage CSF to plasma ratio): 0
Kp (in vivo [7]; percentage brain to plasma ratio): 0
concentration at 0.03 h (in vivo [8]; 15.9 μmole/kg, Concentration, subcutaneous 15.9 μmole/kg, time 0.03 h, individual animals): 1340 nM
concentration at 0.5 h (in vivo [8]; 15.9 μmole/kg, Concentration, subcutaneous 15.9 μmole/kg, time 0.5 h, individual animals): 4.74 µM
concentration at 0.75 h (in vivo [8]; 15.9 μmole/kg, Concentration, subcutaneous 15.9 μmole/kg, time 0.75 h, individual animals): 4.8 µM
concentration at 1 h (in vivo [8]; 15.9 μmole/kg, Concentration, subcutaneous 15.9 μmole/kg, time 1 h, individual animals): 6.68 µM
concentration at 2 h (in vivo [8]; 15.9 μmole/kg, Concentration, subcutaneous 15.9 μmole/kg, time 2 h, individual animals): 7.09 µM
concentration at 4 h (in vivo [8]; 15.9 μmole/kg, Concentration, subcutaneous 15.9 μmole/kg, time 4 h, individual animals): 2750 nM
concentration at 8 h (in vivo [8]; 15.9 μmole/kg, Concentration, subcutaneous 15.9 μmole/kg, time 8 h, individual animals): 196 nM
concentration at 24 h (in vivo [8]; 15.9 μmole/kg, Concentration, subcutaneous 15.9 μmole/kg, time 24 h, individual animals): 18.7 nM
AUC(0-inf) (in vivo [8]; 16 umol/kg): 25.8 ± 3.09 µM·h
CL/F (in vivo [8]; 16 umol/kg): 10.3 mL/min/kg
Vd/F (in vivo [8]; 16 umol/kg): 4.22 ± 0.86 L/kg
half-life (in vivo [8]; 16 umol/kg): 281 ± 31.2 min

SMILES: NC(N)=O [Urea]
%holo RBP binding to TTR (holo-RBP-TTR interaction): 98.7% and 127% and 74.3%
